According to the supplement of paper PMC10307832:

How the values were obtained:
Assay in all cases: relative viability (nuclei count vs DMSO), 5 days (fraction); higher = more cells survive
[1] = compound: CC1=C(C(=O)N2C=CSC2=N1)CCN3CCC(=C(C4=CC=CC=C4)C5=CC=C(C=C5)F)CC3 + COc1cccc2cc(-c3nc([C@H]4CC[C@H](C(=O)O)CC4)n4ncnc(N)c34)[nH]c12 [OSI-027] (partner 0.5 µM)
Procedure, shortened: (§1)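 Values are medians from duplicate plates. Each reflects relative viability, defined as the nuclei count of treated wells over that of vehicle wells. Lung cancer cell lines in 1536-well plates were pin-tool dosed one day after seeding with one drug alone or with a fixed anchor-drug dose plus five library-drug doses (not always all listed) in √10 steps, then fixed, stained and imaged at 4× after 5 days.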

[2] = compound: CC1=C(C(=O)N2C=CSC2=N1)CCN3CCC(=C(C4=CC=CC=C4)C5=CC=C(C=C5)F)CC3 + CC(=O)Nc1cccc(-n2c(=O)n(C3CC3)c(=O)c3c(Nc4ccc(I)cc4F)n(C)c(=O)c(C)c32)c1 [Trametinib] (partner 0.02 µM)
Procedure, shortened: as §1

[3] = compound: CC1=C(C(=O)N2C=CSC2=N1)CCN3CCC(=C(C4=CC=CC=C4)C5=CC=C(C=C5)F)CC3 + N=C(N)NC(=N)NCCc1ccccc1 [Phenformin] (partner 250 µM)
Procedure, shortened: as §1

[4] = compound: CC1=C(C(=O)N2C=CSC2=N1)CCN3CCC(=C(C4=CC=CC=C4)C5=CC=C(C=C5)F)CC3
Procedure, shortened: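 Viability was read as treated-well nuclei divided by vehicle-well nuclei, using the median across plates. Lung cancer cell lines in 1536-well plates were kept overnight at 37 °C, pinned with five √10-spaced library-drug doses, and after 5 days were Hoechst-stained, imaged at 4× and counted in MetaXpress. Plates passed only with control CV below 25% and at least one doubling.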

| Cell Line | relative viability ([1]; first compound 0.08 µM) | relative viability ([1]; first compound 0.253 µM) | relative viability ([1]; first compound 0.8 µM) | relative viability ([1]; first compound 2.53 µM) | relative viability ([1]; first compound 8 µM) | relative viability ([2]; first compound 0.08 µM) | relative viability ([2]; first compound 0.253 µM) | relative viability ([2]; first compound 0.8 µM) | relative viability ([2]; first compound 2.53 µM) | relative viability ([2]; first compound 8 µM) | relative viability ([3]; first compound 0.08 µM) | relative viability ([3]; first compound 0.253 µM) | relative viability ([3]; first compound 0.8 µM) | relative viability ([3]; first compound 2.53 µM) | relative viability ([3]; first compound 8 µM) | relative viability ([4]; 0.08 µM) | relative viability ([4]; 0.253 µM) | relative viability ([4]; 0.8 µM) | relative viability ([4]; 2.53 µM) | relative viability ([4]; 8 µM) |
| --- | --- | --- | --- | --- | --- | --- | --- | --- | --- | --- | --- | --- | --- | --- | --- | --- | --- | --- | --- | --- |
| NCI-H1355 | 0.377 | 0.405 | 0.355 | 0.421 | 0.424 | 0.49 | 0.444 | 0.407 | 0.408 | 0.421 | 0.428 | 0.442 | 0.441 | 0.427 | 0.391 | 0.961 | 1 | 1.04 | 0.981 | 0.757 |
| NCI-H1395 | 0.685 | 0.626 | 0.558 | 0.596 | 0.621 | 1.05 | 0.97 | 0.992 | 1 | 0.872 | 0.511 | 0.432 | 0.435 | 0.453 | 0.432 | 0.953 | 0.992 | 0.762 | 0.992 | 0.872 |
| NCI-H1437 | 0.978 | 0.879 | 0.836 | 1.08 | 0.631 | 0.385 | 0.56 | 0.588 | 0.601 | 0.28 | 0.303 | 0.362 | 0.334 | 0.288 | 0.308 | 0.918 | 1.02 | 1.02 | 1.09 | 0.775 |
| NCI-H1650 | 0.539 | 0.736 | 0.583 | 0.561 | 0.353 | 0.513 | 0.532 | 0.483 | 0.722 | 0.412 | 0.494 | 0.345 | 0.383 | 0.58 | 0.314 | 0.794 | 0.982 | 0.875 | 0.997 | 0.642 |
| NCI-H1651 | 0.71 | 0.768 | 0.698 | 0.697 | 0.461 | 0.783 | 0.915 | 0.837 | 0.866 | 0.712 | 0.341 | 0.321 | 0.352 | 0.304 | 0.283 | 0.823 | 0.968 | 0.976 | 1.01 | 0.72 |
| NCI-H1666 | 0.872 | 0.913 | 0.731 | 0.8 | 0.606 | 0.76 | 0.891 | 0.9 | 0.985 | 0.717 | 0.531 | 0.609 | 0.581 | 0.591 | 0.527 | 0.936 | 0.941 | 0.978 | 1.06 | 0.815 |
| NCI-H1734 | 0.549 | 0.571 | 0.564 | 0.576 | 0.416 | 0.741 | 0.598 | 0.691 | 0.688 | 0.512 | 0.419 | 0.378 | 0.371 | 0.405 | 0.322 | 0.975 | 1.08 | 0.976 | 0.955 | 0.62 |
| NCI-H1755 | 0.744 | 0.861 | 0.664 | 0.68 | 0.672 | 0.751 | 0.716 | 0.794 | 0.778 | 0.595 | 0.681 | 0.659 | 0.578 | 0.66 | 0.565 | 0.926 | 0.998 | 1.04 | 1.02 | 0.777 |
| NCI-H1792 | 0.596 | 0.643 | 0.789 | 0.566 | 0.485 | 0.205 | 0.432 | 0.378 | 0.531 | 0.166 | – | 0.257 | 0.211 | 0.33 | 0.254 | 0.759 | 0.825 | 0.942 | 0.856 | 0.403 |
| NCI-H1793 | 0.302 | 0.3 | 0.261 | 0.293 | 0.186 | 0.433 | 0.407 | 0.443 | 0.47 | 0.426 | 0.301 | 0.379 | 0.404 | 0.402 | 0.241 | 0.761 | 0.891 | 0.912 | 0.831 | 0.711 |
| NCI-H1915 | 0.758 | 0.599 | 0.589 | 0.642 | 0.464 | 0.331 | 0.326 | 0.322 | 0.283 | 0.261 | 0.376 | 0.377 | 0.365 | 0.363 | 0.317 | 1.07 | 1 | 1.01 | 1.01 | 0.732 |
| NCI-H1944 | 0.408 | 0.42 | 0.37 | 0.426 | 0.31 | 0.382 | 0.373 | 0.436 | 0.368 | 0.335 | 0.195 | 0.207 | 0.229 | 0.188 | 0.182 | 0.969 | 0.94 | 0.96 | 0.958 | 0.751 |
| NCI-H1975 | 0.912 | 0.673 | 0.679 | 0.836 | 0.437 | 0.349 | 0.389 | 0.389 | 0.35 | 0.311 | 0.393 | 0.425 | 0.397 | 0.441 | 0.381 | 0.893 | 0.961 | 1 | 0.992 | 0.662 |
| NCI-H1993 | 0.611 | 0.498 | 0.546 | 0.58 | 0.626 | 0.494 | 0.364 | 0.501 | 0.511 | 0.513 | 0.505 | 0.411 | 0.51 | 0.568 | 0.536 | 0.972 | 0.816 | 0.862 | 1.03 | 0.866 |
| NCI-H2009 | 0.638 | 0.619 | 0.616 | 0.637 | 0.527 | 0.36 | 0.265 | 0.279 | 0.287 | 0.284 | 0.541 | 0.492 | 0.493 | 0.49 | 0.362 | 1.06 | 1.07 | 0.999 | 1.05 | 0.871 |
| NCI-H2023 | 0.4 | 0.404 | 0.386 | 0.39 | 0.301 | 0.592 | 0.478 | 0.588 | 0.617 | 0.452 | 0.441 | 0.312 | 0.426 | 0.389 | 0.251 | 0.997 | 0.884 | 0.991 | 1.11 | 0.695 |
